The data set addresses T1, hNOD1 (Homo sapiens, UniProt Q9Y239).
T1 construct: expressed in transfected cells; host or cells: HEK293
T1 sequence (Q9Y239 1-953): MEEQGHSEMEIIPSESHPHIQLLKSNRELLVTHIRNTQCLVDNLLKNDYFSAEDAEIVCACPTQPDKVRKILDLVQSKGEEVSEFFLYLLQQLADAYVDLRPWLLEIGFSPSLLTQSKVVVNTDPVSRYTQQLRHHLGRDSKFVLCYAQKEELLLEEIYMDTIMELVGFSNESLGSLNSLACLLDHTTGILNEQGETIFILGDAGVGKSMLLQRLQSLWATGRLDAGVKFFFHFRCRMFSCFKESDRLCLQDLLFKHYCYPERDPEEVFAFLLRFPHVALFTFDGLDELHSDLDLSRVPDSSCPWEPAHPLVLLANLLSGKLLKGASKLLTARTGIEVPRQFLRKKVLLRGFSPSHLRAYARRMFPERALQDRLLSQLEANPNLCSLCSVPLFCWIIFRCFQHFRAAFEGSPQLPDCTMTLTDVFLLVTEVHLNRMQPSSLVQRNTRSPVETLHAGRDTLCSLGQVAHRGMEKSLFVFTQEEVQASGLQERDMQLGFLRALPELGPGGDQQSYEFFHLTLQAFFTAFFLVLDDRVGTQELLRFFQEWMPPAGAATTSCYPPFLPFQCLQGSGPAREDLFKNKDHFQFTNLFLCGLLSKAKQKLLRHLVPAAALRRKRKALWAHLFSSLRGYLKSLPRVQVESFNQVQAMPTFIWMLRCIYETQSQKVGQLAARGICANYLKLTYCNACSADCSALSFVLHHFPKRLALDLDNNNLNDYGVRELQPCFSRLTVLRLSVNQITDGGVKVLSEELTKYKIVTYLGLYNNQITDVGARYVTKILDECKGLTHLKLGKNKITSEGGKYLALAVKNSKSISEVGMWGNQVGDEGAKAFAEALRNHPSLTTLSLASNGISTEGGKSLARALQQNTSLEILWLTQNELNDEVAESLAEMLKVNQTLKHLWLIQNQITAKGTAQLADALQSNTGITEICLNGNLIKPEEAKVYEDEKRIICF
The data set can be described thus: Human NLR antagonist screening, NF-κB SEAP reporter in HEK293 cells. The data set is classed as cell-based. Conditions: antagonist mode, Ami 1 μM, +C12-iE-DAP 100 ng/mL, No Sample 10, Control− 1. As to the method:
Toll-Like Receptor (TLR), NOD-Like Receptor (NLR) and C-Type Lectin Receptor (CLR) stimulation were tested by assessing NF-κB activation in HEK293 cells expressing a given TLR, NLR or CLR. The activity of the test articles was tested at one concentration and compared to control ligands. These steps were performed in triplicate. hNOD1: C12-iE-DAP at 1 μg/mL Antagonist: 100 ng/mL. In a 96-well plate (200 μL total volume) containing the appropriate cells (50,000-75,000 cells/well), 20 μL of the test article or the positive control ligand was added to the wells. For the antagonist assay, the test article was incubated with the cells, at 37° C. with 5% CO2, for 30 minutes prior to the addition of the positive control ligand to the wells. The media added to the wells was designed for the detection of NF-κB induced SEAP expression. After a 16-24 hr incubation the optical density (OD) was read at 650 nm on a Molecular Devices SpectraMax 340PC absorbance detector. Fold induction (ratio of average induced value to average non-induced value) was determined for each TLR, NOD1, NOD2, Dectin-1a, Dectin-1b.

Turning to `CN(C)CCC=C1c2ccccc2CCc2ccccc21` [Amitriptyline], the “Fold Induction” value is reported as “slight inhibitory effect”. Moreover, the “Fold Induction” value (listed as Ami) amounted to 9.

Values taken from US11400059B2, “Treatment of pain and/or pain related symptoms associated with dysmenorrhea” (ALYRA BIOTECH PTY LTD, priority 2017, dated 2022).
